The source of these data is patent US20140206682A1, “COMPOUNDS AND COMPOSITIONS AS PDGFR KINASE INHIBITORS” (NOVARTIS PHARMACEUTICALS UK LIMITED, priority 2011, published 2014).

One test relates to PDGFR. The experiment in a line: Rat A10 cell proliferation assay. Type of test: cell-based. Conditions: Table 1; Rat A10 cells, recombinant rat PDGF-BB, CellTiter-Glo after 68 hours. In outline:
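Rat A10 cells in DMEM with 1% FBS and 10 ng/mL rat PDGF-BB, preincubated 4 h at 37 °C, then exposed to 3-fold serially diluted compound for 68 h. Viability/proliferation read as CellTiter-Glo luminescence.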
(ATP-based viability assays read luminescence as a measure of living cells.)
In the case of `CCC[C@@H](CO)NC(=O)c1ccc(F)c(NC(=O)c2cnc3ccccn23)c1` [F110, N-(2-fluoro-5-{[(2S)-1-hydroxypentan-2-yl]carbamoyl}phenyl)imidazo[1,2-a]pyridine-3-carboxamide], the IC50 worked out at 115 nM.

For the molecule `COc1ccc2c(c1)[C@@H](NC(=O)c1ccc(F)c(NC(=O)c3cnc4ccc(C)cn34)c1)[C@@H](O)C2` [F111, N-(2-fluoro-5-{[(1R,2S)-2-hydroxy-6-methoxy-2,3-dihydro-1H-inden-1-yl]carbamoyl}phenyl)-6-methylimidazo[1,2-a]pyridine-3-carboxamide], the IC50 turned out to be 195 nM.

As for `O=C(N[C@H](CO)c1ccccc1)c1ccc(F)c(NC(=O)c2cnc3ccccn23)c1` [F112, N-(2-fluoro-5-{[(1S)-2-hydroxy-1-phenylethyl]carbamoyl}phenyl)imidazo[1,2-a]pyridine-3-carboxamide], the IC50 worked out at 76 nM.

For the molecule `O=C(N[C@@H]1c2cc(F)ccc2C[C@@H]1O)c1ccc(F)c(NC(=O)c2cnc3ccc(F)cn23)c1` [F113, 6-fluoro-N-(2-fluoro-5-{[(1R,2S)-6-fluoro-2-hydroxy-2,3-dihydro-1H-inden-1-yl]carbamoyl}phenyl)imidazo[1,2-a]pyridine-3-carboxamide], the IC50 was 113 nM.

On to `Cc1ccc2ncc(C(=O)Nc3cc(C(=O)N[C@H]4CCCC[C@@H]4O)ccc3F)n2c1` [F114, N-(2-fluoro-5-{[(1S,2S)-2-hydroxycyclohexyl]carbamoyl}phenyl)-6-methylimidazo[1,2-a]pyridine-3-carboxamide], for which the IC50 came out at 70 nM.

For `Cc1ccn2c(C(=O)Nc3cc(C(=O)N[C@H]4CCCC[C@@H]4O)ccc3F)cnc2c1` [F115, N-(2-fluoro-5-{[(1S,2S)-2-hydroxycyclohexyl]carbamoyl}phenyl)-7-methylimidazo[1,2-a]pyridine-3-carboxamide], the IC50 came to 44 nM.

On to `O=C(NC[C@@H]1CCCC[C@H]1O)c1ccc(F)c(NC(=O)c2cnc3ccccn23)c1` [F116, N-[2-fluoro-5-({[(1S,2R)-2-hydroxycyclohexyl]methyl}carbamoyl)phenyl]imidazo[1,2-a]pyridine-3-carboxamide], for which the IC50 is 64 nM.

In the case of `COC[C@H](NC(=O)c1ccc(F)c(NC(=O)c2cnc3ccccn23)c1)[C@@H](O)c1ccccc1` [F117, N-(2-fluoro-5-{[(1S,2S)-1-hydroxy-3-methoxy-1-phenylpropan-2-yl]carbamoyl}phenyl)imidazo[1,2-a]pyridine-3-carboxamide], the IC50 was determined as 13 nM.

For the molecule `COC[C@H](NC(=O)c1ccc(F)c(NC(=O)c2cnc3ccccn23)c1)[C@@H](O)c1ccccc1` [F118, N-(2-fluoro-5-{[(1S,2S)-1-hydroxy-3-methoxy-1-phenylpropan-2-yl]carbamoyl}phenyl)imidazo[1,2-a]pyridine-3-carboxamide], the IC50 was determined as 41 nM.

Regarding `O=C(NCC(O)c1ccccc1Cl)c1ccc(F)c(NC(=O)c2cnc3ccccn23)c1` (centres unmarked) [F120, N-(5-{[2-(2-chlorophenyl)-2-hydroxyethyl]carbamoyl}-2-fluorophenyl)imidazo[1,2-a]pyridine-3-carboxamide], the IC50 came to 36 nM.

For `O=C(NC[C@@H](O)c1ccc(Cl)cc1)c1ccc(F)c(NC(=O)c2cnc3ccccn23)c1` [F121, N-(5-{[(2S)-2-(4-chlorophenyl)-2-hydroxyethyl]carbamoyl}-2-fluorophenyl)imidazo[1,2-a]pyridine-3-carboxamide], the IC50 worked out at 13 nM.

Turning to `O=C(NC[C@@H](O)c1ccccc1F)c1ccc(F)c(NC(=O)c2cnc3ccccn23)c1` [F122, N-(2-fluoro-5-{[(2S)-2-(2-fluorophenyl)-2-hydroxyethyl]carbamoyl}phenyl)imidazo[1,2-a]pyridine-3-carboxamide], the IC50 came out at 60 nM.

Turning to `O=C(N[C@@H](CO)[C@@H](O)c1ccccc1)c1ccc(F)c(NC(=O)c2cnc3ccccn23)c1` [F123, N-(5-{[(1S,2S)-1,3-dihydroxy-1-phenylpropan-2-yl]carbamoyl}-2-fluorophenyl)imidazo[1,2-a]pyridine-3-carboxamide], the IC50 turned out to be 44 nM.

On to `C[C@@]1(O)CCCC[C@@H]1NC(=O)c1ccc(F)c(NC(=O)c2cnc3ccccn23)c1` [F124, N-(2-fluoro-5-{[(1S,2R)-2-hydroxy-2-methylcyclohexyl]carbamoyl}phenyl)imidazo[1,2-a]pyridine-3-carboxamide], for which the IC50 came out at 187 nM.

Staying with this test, now noted: Table 2; Rat A10 cells, recombinant rat PDGF-BB, CellTiter-Glo after 68 hours.
On to `CSc1ccc([C@H](O)[C@H](CO)NC(=O)c2ccc(F)c(NC(=O)c3cnc4ccccn34)c2)cc1` [F92, N-(5-{[(1S,2S)-1,3-dihydroxy-1-[4-(methylsulfanyl)phenyl]propan-2-yl]carbamoyl}-2-fluorophenyl)imidazo[1,2-a]pyridine-3-carboxamide], for which the concentration for half-maximal inhibition (IC50) turned out to be 283 nM.

As to `O=C(N[C@H]1CC[C@H](O)CC1)c1ccc(F)c(NC(=O)c2cnc3ccccn23)c1` [F93, N-{2-fluoro-5-[(4-hydroxycyclohexyl)carbamoyl]phenyl}imidazo[1,2-a]pyridine-3-carboxamide], the IC50 came out at 1140 nM.

As for `O=C(NC[C@@H](O)c1ccccc1)c1ccc(F)c(NC(=O)c2cnc3ccccn23)c1` [F94, N-(2-fluoro-5-{[(2S)-2-hydroxy-2-phenylethyl]carbamoyl}phenyl)imidazo[1,2-a]pyridine-3-carboxamide], the IC50 was determined as 239 nM.

Regarding `C[C@H](NC(=O)c1ccc(F)c(NC(=O)c2cnc3ccccn23)c1)[C@@H](O)c1ccccc1` [F95, N-(2-fluoro-5-{[(1S,2S)-1-hydroxy-1-phenylpropan-2-yl]carbamoyl}phenyl)imidazo[1,2-a]pyridine-3-carboxamide], the IC50 was 219 nM.

For the molecule `CSCC[C@@H](CO)NC(=O)c1ccc(F)c(NC(=O)c2cnc3ccccn23)c1` [F96, N-(2-fluoro-5-{[(2S)-1-hydroxy-4-(methylsulfanyl)butan-2-yl]carbamoyl}phenyl)imidazo[1,2-a]pyridine-3-carboxamide], the IC50 worked out at 556 nM.

On to `O=C(NC[C@@H](O)c1cccc(O)c1)c1ccc(F)c(NC(=O)c2cnc3ccccn23)c1` [F97, N-(2-fluoro-5-{[(2S)-2-hydroxy-2-(3-hydroxyphenyl)ethyl]carbamoyl}phenyl)imidazo[1,2-a]pyridine-3-carboxamide], for which the IC50 is 668 nM.

Take `CC(C)(CO)NC(=O)c1ccc(F)c(NC(=O)c2cnc3ccccn23)c1` [F98, N-{2-fluoro-5-[(1-hydroxy-2-methylpropan-2-yl)carbamoyl]phenyl}imidazo[1,2-a]pyridine-3-carboxamide]: the IC50 is greater than 10000 nM.

Turning to `O=C(N[C@@H]1CCCC(F)(F)[C@H]1O)c1ccc(F)c(NC(=O)c2cnc3ccccn23)c1` [F99, N-(5-{[(1R,2S)-3,3-difluoro-2-hydroxycyclohexyl]carbamoyl}-2-fluorophenyl)imidazo[1,2-a]pyridine-3-carboxamide], the IC50 came out at 325 nM.

Turning to `O=C(NCC1(O)CCNCC1)c1ccc(F)c(NC(=O)c2cnc3ccccn23)c1` [F100, N-(2-fluoro-5-{[(4-hydroxypiperidin-4-yl)methyl]carbamoyl}phenyl)imidazo[1,2-a]pyridine-3-carboxamide], the IC50 was greater than 9020 nM.

As to `O=C(N[C@@H](c1ccccc1)[C@H](O)CO)c1ccc(F)c(NC(=O)c2cnc3ccccn23)c1` [F101, N-(5-{[(1S,2S)-2,3-dihydroxy-1-phenylpropyl]carbamoyl}-2-fluorophenyl)imidazo[1,2-a]pyridine-3-carboxamide], the IC50 was found to be 429 nM.

Turning to `CC(C)(O)[C@H]1CCCC[C@@H]1NC(=O)c1ccc(F)c(NC(=O)c2cnc3ccccn23)c1` [F102, N-(2-fluoro-5-{[(1S,2S)-2-(2-hydroxypropan-2-yl)cyclohexyl]carbamoyl}phenyl)imidazo[1,2-a]pyridine-3-carboxamide], the IC50 was 425 nM.

Consider `C[C@@]1(O)CCCC[C@H]1NC(=O)c1ccc(F)c(NC(=O)c2cnc3ccccn23)c1` [F103, N-(2-fluoro-5-{[(1R,2R)-2-hydroxy-2-methylcyclohexyl]carbamoyl}phenyl)imidazo[1,2-a]pyridine-3-carboxamide], for which the IC50 is greater than 10000 nM.

Turning to `O=C(N[C@H]1CC[C@@H](O)CC1)c1ccc(F)c(NC(=O)c2cnc3ccccn23)c1` [F104, N-{2-fluoro-5-[(4-hydroxycyclohexyl)carbamoyl]phenyl}imidazo[1,2-a]pyridine-3-carboxamide], the IC50 is greater than 10000 nM.

Regarding `O=C(N[C@@H]1CCSC[C@H]1O)c1ccc(F)c(NC(=O)c2cnc3ccccn23)c1` [F105, N-(2-fluoro-5-{[(3S,4R)-3-hydroxythian-4-yl]carbamoyl}phenyl)imidazo[1,2-a]pyridine-3-carboxamide], the IC50 stood at 840 nM.

Regarding `CC(C)(O)[C@@H]1CCCC[C@@H]1NC(=O)c1ccc(F)c(NC(=O)c2cnc3ccccn23)c1` [F106, N-(2-fluoro-5-{[(1S,2R)-2-(2-hydroxypropan-2-yl)cyclohexyl]carbamoyl}phenyl)imidazo[1,2-a]pyridine-3-carboxamide], the IC50 was found to be 813 nM.

Consider `O=C(N[C@H](CO)[C@H](O)c1ccccc1)c1ccc(F)c(NC(=O)c2cnc3ccccn23)c1` [F107, N-(5-{[(1R,2R)-1,3-dihydroxy-1-phenylpropan-2-yl]carbamoyl}-2-fluorophenyl)imidazo[1,2-a]pyridine-3-carboxamide], for which the IC50 was 265 nM.

Turning to `Cc1ccn2c(C(=O)Nc3cc(C(=O)N[C@H]([C@@H](O)c4ccccc4)C(C)(C)O)ccc3F)cnc2c1` [F108, N-(5-{[(1S,2R)-1,3-dihydroxy-3-methyl-1-phenylbutan-2-yl]carbamoyl}-2-fluorophenyl)-7-methylimidazo[1,2-a]pyridine-3-carboxamide], the IC50 was 255 nM.

On to `C[C@@H]1CC[C@H](O)[C@H](C)N1CCNC(=O)c1ccc(F)c(NC(=O)c2cnc3cc(-c4ccnn4C)ccn23)c1` [F109, N-[2-fluoro-5-({2-[(2S,3S,6R)-3-hydroxy-2,6-dimethylpiperidin-1-yl]ethyl}carbamoyl)phenyl]-7-(1-methyl-1H-pyrazol-5-yl)imidazo[1,2-a]pyridine-3-carboxamide], for which the 50% inhibitory concentration (IC50) was 295 nM.

As a reminder, the IC50 is the point on the concentration scale where inhibition reaches its midpoint.
